≈ marks a conversion by molar mass, not a printed value.
Legend:
Streptococcus pyogenes = assay: Antimicrobial susceptibility test (disc diffusion), Streptococcus pyogenes; assay type: cell-based; conditions: dash = none; for Sensitive %: share of Streptococcus pyogenes strains classed sensitive
Experimental: (§1) Several bacterial colonies were transferred from the agar plates to bijoux containing MHB. The suspension is incubated at 35° C. and subsequently diluted down in sterile saline to match the density of a McFarland standard solution. A sterile cotton swab is then dipped in the bacterial inoculum and pressed against the bijou walls to remove any excess solution. MHA plates are then thoroughly streaked with the swab three times, turning the plate 60° each time. The discs are placed onto the inoculated plate within 15 minutes. The positions of the discs should allow enough space (≈24 mm) around each individual disc in order to measure the diffusion diameter at a later stage. The plates were incubated immediately at 35° C. for 16-18 hours for all organisms excluding VRE, and MRSA, which require a 24-hour incubation. The experiment was valid if there was a confluent bacterial growth, not single colonies, and circular inhibition zones were evident. Clear zones produced around the disc were measured with a ruler and interpreted according to the tables provided by the NCCLS. Bacteria were classified as sensitive, intermediate or resistant.

Streptococcus agalactiae = assay: Antimicrobial susceptibility test (disc diffusion), Streptococcus agalactiae; assay type: cell-based; conditions: dash = none; for Resistant %: share of Streptococcus agalactiae strains classed resistant; for Sensitive %: share of Streptococcus agalactiae strains classed sensitive
Experimental: as §1

Listeria monocytogenes = assay: Antimicrobial susceptibility test (disc diffusion), Listeria monocytogenes; assay type: cell-based; conditions: dash = none; for Sensitive %: share of Listeria monocytogenes strains classed sensitive; for Resistant %: share of Listeria monocytogenes strains classed resistant
Experimental: as §1

VRE = assay: Antimicrobial susceptibility test (disc diffusion), VRE; assay type: cell-based, vancomycin resistant enterococci; conditions: dash = none; for Resistant %: share of VRE strains classed resistant; for Sensitive %: share of VRE strains classed sensitive
Experimental: as §1

[1] = test system: K562 human chronic myeloid leukaemia cells; conditions: value quoted for comparison; read-out: IC50 quoted in WO 93/18045; cited from earlier work
MRSA [2] = assay: Antimicrobial susceptibility test (disc diffusion), MRSA; assay type: cell-based, methicillin resistant Staphylococcus aureus; conditions: for Resistant %: share of MRSA strains classed resistant; for Sensitive %: share of MRSA strains classed sensitive
Experimental: as §1

MRSA [3] = conditions: literature values for comparison; cited from earlier work

## NCC[C@H](O)C(=O)N[C@@H]1C[C@H](N)[C@@H](O[C@H]2O[C@H](CN)[C@@H](O)[C@H](O)[C@H]2O)[C@H](O)[C@H]1O[C@H]1O[C@H](CO)[C@@H](O)[C@H](N)[C@H]1O [Amikacin]
Streptococcus pyogenes; share of Streptococcus pyogenes strains classed resistant
  Resistant %: 100%
Streptococcus agalactiae
  Resistant %: 100%
Listeria monocytogenes
  Sensitive %: 100%

## CCC[C@@H]1C[C@@H](C(=O)N[C@@H]([C@H]2O[C@H](SC)[C@H](O)[C@@H](O)[C@H]2O)[C@H](C)Cl)N(C)C1 [Clindamycin]
VRE
  Resistant %: 85%
  Sensitive %: 15%
Streptococcus pyogenes
  Sensitive %: 100%
Streptococcus agalactiae
  Sensitive %: 100%
Listeria monocytogenes
  Resistant %: 100%

## CC[C@H]1OC(=O)[C@H](C)[C@@H](O[C@H]2C[C@@](C)(OC)[C@@H](O)[C@H](C)O2)[C@H](C)[C@@H](O[C@@H]2O[C@H](C)C[C@H](N(C)C)[C@H]2O)[C@](C)(O)C[C@@H](C)C(=O)[C@H](C)[C@@H](O)[C@]1(C)O [Erythromycin]
VRE
  Resistant %: 90%
  Sensitive %: 10%
Streptococcus pyogenes
  Sensitive %: 100%
Streptococcus agalactiae
  Sensitive %: 100%
Listeria monocytogenes
  Sensitive %: 100%

## CC=C1C[C@H]2C=Nc3cc(OCCCOc4cc5c(cc4OC)C(=O)N4CC(=CC)C[C@H]4C=N5)c(OC)cc3C(=O)N2C1 [Example 6 in WO 93/18045]
[1]
  IC50: 0.01 µM

## Cc1onc(-c2ccccc2)c1C(=O)N[C@@H]1C(=O)N2[C@@H]1SC(C)(C)[C@@H]2C(=O)O [Oxacillin]
VRE
  Resistant %: 100%
Streptococcus pyogenes
  Sensitive %: 100%
Streptococcus agalactiae
  Sensitive %: 100%
Listeria monocytogenes
  Resistant %: 100%

## CO[C@H]1/C=C/O[C@@]2(C)Oc3c(C)c(O)c4c(O)c(c(/C=N/N5CCN(C)CC5)c(O)c4c3C2=O)NC(=O)/C(C)=C\C=C\[C@H](C)[C@H](O)[C@@H](C)[C@@H](O)[C@@H](C)[C@H](OC(C)=O)[C@@H]1C [Rifampicin]
Streptococcus pyogenes
  Sensitive %: 100%
Streptococcus agalactiae
  Sensitive %: 100%
Listeria monocytogenes
  Sensitive %: 100%

## CN(C)[C@@H]1C(O)=C(C(N)=O)C(=O)[C@@]2(O)C(O)=C3C(=O)c4c(O)cccc4[C@@](C)(O)[C@H]3C[C@@H]12 [Tetracycline]
VRE
  Resistant %: 60%
  Sensitive %: 40%
Streptococcus pyogenes
  Sensitive %: 100%
Streptococcus agalactiae
  Resistant %: 90%
  Sensitive %: 10%
Listeria monocytogenes
  Sensitive %: 100%

## COc1cc(Cc2cnc(N)nc2N)cc(OC)c1OC [Trimethophrim]
VRE
  Resistant %: 75%
  Sensitive %: 25%
MRSA [2]; dash = none
  Resistant %: 32%
  Sensitive %: 68%
Streptococcus pyogenes
  Sensitive %: 100%
Streptococcus agalactiae
  Sensitive %: 100%
Listeria monocytogenes
  Sensitive %: 100%

## CN[C@H](CC(C)C)C(=O)N[C@H]1C(=O)N[C@@H](CC(N)=O)C(=O)N[C@H]2C(=O)N[C@H]3C(=O)N[C@H](C(=O)N[C@H](C(=O)O)c4cc(O)cc(O)c4-c4cc3ccc4O)[C@H](O)c3ccc(c(Cl)c3)Oc3cc2cc(c3O[C@@H]2O[C@H](CO)[C@@H](O)[C@H](O)[C@H]2O[C@H]2C[C@](C)(N)[C@H](O)[C@H](C)O2)Oc2ccc(cc2Cl)[C@H]1O [Vancomycin]
VRE
  Resistant %: 100%
MRSA [2]; in words, summary of Table 4
  susceptibility of all MRSA strains used: completely susceptible
Streptococcus pyogenes
  Sensitive %: 100%
Streptococcus agalactiae
  Sensitive %: 100%
Listeria monocytogenes
  Sensitive %: 100%
MRSA [3]
  MIC in MRSA: about 2 mg/L

## CC(=O)NC[C@H]1CN(c2ccc(N3CCOCC3)c(F)c2)C(=O)O1 [linezolid]
MRSA [3]
  MIC in MRSA: ~1 µg/mL (≈ 2.96 µM)

## Gentamicin
VRE
  Resistant %: 80%
  Sensitive %: 20%
MRSA [2]; share of MRSA strains classed intermediate, dash = none
  Intermediate %: 8%
MRSA [2]; dash = none
  Resistant %: 70%
  Sensitive %: 22%
Streptococcus pyogenes
  Sensitive %: 100%
Streptococcus agalactiae
  Resistant %: 100%
Listeria monocytogenes
  Sensitive %: 100%

## synercid
MRSA [3]
  MIC in MRSA: ~0.5 µg/mL
